From the supplement of paper PMC13380429

Columns and labels:
Details in all cases: 72 h
HepG2 [1] = assay: cell viability relative to DMSO; higher = less toxic
U2OS [2] = assay: as above
Calu-3 [3] = assay: as above
Vero E6 [4] = assay: as above
Caco-2 [5] = assay: as above
HepG2 [6] = assay: drug sensitivity score (DSS) for viability; higher = more toxic; extreme values may be limits of the assay
U2OS [7] = assay: as above
Calu-3 [8] = assay: as above
Vero E6 [9] = assay: as above
Caco-2 [10] = assay: as above
HepG2 [11] = assay: relative viability EC50 (midpoint between 100% and the lowest measured viability); higher = less toxic
U2OS [12] = assay: as above
Calu-3 [13] = assay: as above
Vero E6 [14] = assay: as above
Caco-2 [15] = assay: as above

| SMILES | cell viability (HepG2 [1]; 1 nM) [%] | cell viability (HepG2 [1]; 10 nM) [%] | cell viability (HepG2 [1]; 100 nM) [%] | cell viability (HepG2 [1]; 1000 nM) [%] | cell viability (HepG2 [1]; 10000 nM) [%] | cell viability (U2OS [2]; 1 nM) [%] | cell viability (U2OS [2]; 10 nM) [%] | cell viability (U2OS [2]; 100 nM) [%] | cell viability (U2OS [2]; 1000 nM) [%] | cell viability (U2OS [2]; 10000 nM) [%] | cell viability (Calu-3 [3]; 1 nM) [%] | cell viability (Calu-3 [3]; 10 nM) [%] | cell viability (Calu-3 [3]; 100 nM) [%] | cell viability (Calu-3 [3]; 1000 nM) [%] | cell viability (Calu-3 [3]; 10000 nM) [%] | cell viability (Vero E6 [4]; 1 nM) [%] | cell viability (Vero E6 [4]; 10 nM) [%] | cell viability (Vero E6 [4]; 100 nM) [%] | cell viability (Vero E6 [4]; 1000 nM) [%] | cell viability (Vero E6 [4]; 10000 nM) [%] | cell viability (Caco-2 [5]; 1 nM) [%] | cell viability (Caco-2 [5]; 10 nM) [%] | cell viability (Caco-2 [5]; 100 nM) [%] | cell viability (Caco-2 [5]; 1000 nM) [%] | cell viability (Caco-2 [5]; 10000 nM) [%] | drug sensitivity score (HepG2 [6]) | drug sensitivity score (U2OS [7]) | drug sensitivity score (Calu-3 [8]) | drug sensitivity score (Vero E6 [9]) | drug sensitivity score (Caco-2 [10]) | relative viability EC50 (HepG2 [11]) [µM] | relative viability EC50 (U2OS [12]) [µM] | relative viability EC50 (Calu-3 [13]) [µM] | relative viability EC50 (Vero E6 [14]) [µM] | relative viability EC50 (Caco-2 [15]) [µM] |
| --- | --- | --- | --- | --- | --- | --- | --- | --- | --- | --- | --- | --- | --- | --- | --- | --- | --- | --- | --- | --- | --- | --- | --- | --- | --- | --- | --- | --- | --- | --- | --- | --- | --- | --- | --- |
| O=C(N/N=C/c1ccccc1O)c1ccccc1O [SCS] | 102 | 94.6 | 94.1 | 86.6 | 5.5 | 98.7 | 104 | 95.6 | 91.1 | 46.3 | 108 | 94.9 | 98.2 | 99.3 | 11.9 | 97.6 | 100 | 101 | 102 | 45.4 | 97 | 97.6 | 88.6 | 76.5 | 3.6 | 7.5 | 4.4 | 5 | 2.8 | 8.8 | 2.04 | 1.89 | 3.11 | 3.35 | 1.6 |
| CCCCCCCCCC(=O)O[C@H]1CC[C@H]2[C@@H]3CCC4=CC(=O)CC[C@@H]4[C@H]3CC[C@]12C [Nandrolone decanoate] | 104 | 95.7 | 97.9 | 102 | 101 | 102 | 99.3 | 99.1 | 101 | 94 | 94.1 | 88.6 | 83 | 90.9 | 89 | 108 | 97.1 | 102 | 97.5 | 104 | 90.7 | 104 | 96.2 | 106 | 96.4 | 0 | 0 | 0 | 0 | 0 | > 10 | > 10 | > 10 | > 10 | > 10 |
| COc1ccc2[nH]c(SCc3ncc(C)c(OC)c3C)nc2c1 [omeprazole-sulfide] | 105 | 99.6 | 99 | 94.4 | 102 | 96.8 | 97.8 | 96.5 | 102 | 96.8 | 89.7 | 102 | 101 | 103 | 90.6 | 106 | 89.6 | 87.8 | 94.9 | 95.7 | 104 | 96.1 | 113 | 96 | 101 | 0 | 0 | 0 | 0 | 0 | > 10 | > 10 | > 10 | > 10 | > 10 |
| C[n+]1c2cc(N)ccc2cc2ccc(N)cc21 [acriflavinium] | 84.1 | 85.9 | 88.6 | 33.1 | 1.2 | 98.7 | 101 | 99.7 | 100 | 18.2 | 108 | 108 | 99.3 | 94.9 | 25.8 | 96.9 | 94.8 | 103 | 82 | 49.3 | 97.4 | 91.1 | 91 | 62.3 | 37.4 | 14.4 | 4.5 | 4.9 | 5.2 | 8.3 | 0.516 | 3.2 | 2.62 | 1.27 | 0.594 |
| COc1cc2nc(N3CCC(N4CCCCC4)CC3)nc(NC3CCCCCC3)c2cc1OC [C-021] | 108 | 93.7 | 99.4 | 101 | -0.2 | 99.4 | 98.7 | 99.1 | 94.6 | 16.7 | 98.4 | 100 | 94.7 | 90 | 4.2 | 96.8 | 102 | 99.1 | 97.5 | 0.8 | 101 | 101 | 108 | 93.4 | 23.4 | 5.5 | 5.4 | 6.9 | 5.9 | 5.3 | 3.24 | 2.65 | 2.31 | 2.98 | 2.47 |
| COc1c(C)c(C(=O)c2ccc(N)c(C(=O)O)c2)n2ccccc12 | 100 | 108 | 101 | 93.4 | 119 | 99.9 | 99.2 | 96.9 | 98.9 | 90.4 | 96.6 | 102 | 96 | 98.2 | 103 | 99.9 | 98.7 | 99.4 | 100 | 106 | 89.7 | 88.7 | 87.1 | 100 | 106 | 0 | 0 | 0 | 0 | 0 | > 10 | > 10 | > 10 | > 10 | > 10 |
| CC(C)CN(C[C@@H](OP(=O)(O)O)[C@H](Cc1ccccc1)NC(=O)O[C@H]1CCOC1)S(=O)(=O)c1ccc(N)cc1 [fosamprenavir] | 99.8 | 106 | 102 | 93.5 | 98.7 | 101 | 94.8 | 95.9 | 94.2 | 109 | 113 | 103 | 107 | 98.2 | 108 | 102 | 101 | 99 | 100 | 96.5 | 93.7 | 91.5 | 96.5 | 98.1 | 99.6 | 0 | 0 | 0 | 0 | 0 | > 10 | > 10 | > 10 | > 10 | > 10 |
| Cc1sc(N)c(C(=O)c2cccc(C(F)(F)F)c2)c1C | 92.3 | 102 | 93.2 | 96.7 | 92.7 | 97.9 | 95.9 | 99.9 | 94.9 | 102 | 100 | 91.9 | 99.2 | 100 | 109 | 98.1 | 96.9 | 98 | 99.3 | 100 | 97.7 | 96.6 | 97 | 95.6 | 90.6 | 0 | 0 | 0 | 0 | 0 | > 10 | > 10 | > 10 | > 10 | > 10 |
| CC(C)(C)NS(=O)(=O)c1cncc(-c2cc(F)c3nc(N)nn3c2)c1 | 94.7 | 106 | 90.7 | 101 | 105 | 98.5 | 92.5 | 97.9 | 95.8 | 95.9 | 96.1 | 82.5 | 95.2 | 84.2 | 97.1 | 93.5 | 99.3 | 94 | 96.3 | 100 | 95.6 | 91.8 | 106 | 87.7 | 107 | 0 | 0 | 0 | 0 | 0 | > 10 | > 10 | > 10 | > 10 | > 10 |
| Cc1[nH]c(=O)c(C#N)cc1-c1ccncc1 [milrinone] | 102 | 101 | 98.3 | 96.2 | 106 | 103 | 95.6 | 99.9 | 97.7 | 100 | 95.3 | 89.1 | 99.5 | 108 | 101 | 95.6 | 101 | 95.3 | 97.6 | 94.5 | 100 | 98.4 | 103 | 87.5 | 85.9 | 0 | 0 | 0 | 0 | 0.9 | > 10 | > 10 | > 10 | > 10 | > 10 |
| C=CCN1CCCC1CNC(=O)c1cc2nn[nH]c2cc1OC (stereo not given) [alizapride] | 108 | 94.2 | 104 | 88.8 | 103 | 97.6 | 99.9 | 94.5 | 106 | 100 | 89.9 | 91.4 | 86.2 | 101 | 112 | 92.9 | 97.3 | 94.9 | 91.4 | 105 | 94.7 | 104 | 90.1 | 98 | 107 | 0 | 0 | 0 | 0 | 0 | > 10 | > 10 | > 10 | > 10 | > 10 |
| O=C(O)C1=C(CSc2nnnn2CS(=O)(=O)O)CS[C@@H]2[C@H](NC(=O)[C@H](O)c3ccccc3)C(=O)N12 [Cefonicid (sodium)] | 103 | 100 | 92.2 | 103 | 97.7 | 95.1 | 99.2 | 94.3 | 101 | 94.4 | 95.7 | 97.2 | 97.9 | 96.6 | 95.8 | 99.9 | 98.9 | 102 | 99.1 | 99.5 | 97.8 | 102 | 93.4 | 97.7 | 102 | 0 | 0 | 0 | 0 | 0 | > 10 | > 10 | > 10 | > 10 | > 10 |
